The values below come from ChEMBL document CHEMBL1201862, “PubChem BioAssay data set” (2004).

Test systems include A498; BT-549; EKVX; HOP-92; HT-29; IGROV-1; K562; OVCAR-3; OVCAR-5; PC-3; RPMI-8226; RXF 393; SK-MEL-5; SW-620; T47D; UACC-62; UO-31; ACHN; HOP-62.
Assay in all cases: growth of human tumour cells (NCI), 48 h

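Growth conditions: 96-well plates. Treatment: test compound, 48 hours, 5 concentrations. Analysis: linear interpolation between bracketing concentrations; unreached endpoints set to highest concentration. Abbreviation: GI50, concentration required for 50% inhibition of growth.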 The source made the active and inactive calls. Rule as the data show it: active = GI50 up to about 1.1 µM and inactive = higher.

As for `Nc1nc(S)c2c(N)n[nH]c2c1C(=O)Nc1ccc(Cl)cc1`, the GI50 in the experiment with A498, with BT-549, in the experiment with EKVX, in the experiment with HOP-92, in the experiment on HT-29 and in the experiment on IGROV-1 was > 100 µM (inactive) each time. For the same compound, the GI50 was 91.6 µM (inactive) in the experiment with K562; > 100 µM (inactive) in the experiment on OVCAR-3; > 100 µM (inactive) in the experiment with OVCAR-5; > 100 µM (inactive) in the experiment with PC-3; > 100 µM (inactive) in the experiment on RPMI-8226; > 100 µM (inactive) in the experiment with RXF 393. The GI50 is > 100 µM (inactive) with SK-MEL-5; 29.6 µM (inactive) in the experiment on SW-620; 44.6 µM (inactive) in the experiment on T47D; 18.4 µM (inactive) in the experiment with UACC-62; 74 µM (inactive) in the experiment on UO-31.

As for `O=C1CSC(=S)N1c1ccc(F)cc1F`, the GI50 in the experiment with A498 was 67.9 µM (inactive); with ACHN, 53.7 µM (inactive); in the experiment with BT-549, 39.6 µM (inactive); with EKVX, 94.8 µM (inactive); with HOP-62, > 100 µM (inactive); with HOP-92, 30.2 µM (inactive). Besides, the GI50 in the experiment on HT-29 was 90.8 µM (inactive); in the experiment with IGROV-1, 51.6 µM (inactive); in the experiment with OVCAR-3, 41.3 µM (inactive); with PC-3, > 100 µM (inactive); in the experiment on RPMI-8226, 24.4 µM (inactive); with RXF 393 it was 72.9 µM (inactive). In addition, the GI50 was 25.4 µM (inactive) in the experiment with SK-MEL-5; > 100 µM (inactive) in the experiment with SW-620; 30 µM (inactive) in the experiment with T47D; 70.8 µM (inactive) in the experiment on UACC-62; 89.9 µM (inactive) with UO-31.

As to `CCCCCCCC1(N=[N+]=[N-])C(=O)Nc2ccccc2C1=O` (configuration not stated), the GI50 in the experiment with A498 is 0.971 µM (active); with ACHN it was 14.4 µM (inactive); in the experiment on BT-549, 16.7 µM (inactive); in the experiment on HOP-62, 17.7 µM (inactive); with HOP-92, 13.6 µM (inactive); in the experiment with HT-29 it was 22.6 µM (inactive). Moreover, the GI50 was 12.1 µM (inactive) in the experiment with IGROV-1; 16.4 µM (inactive) in the experiment with K562; 16.1 µM (inactive) with OVCAR-3; 18.7 µM (inactive) in the experiment on OVCAR-5; 11.5 µM (inactive) in the experiment with PC-3; 25.5 µM (inactive) with RPMI-8226. In addition, the GI50 in the experiment with RXF 393 was 12.6 µM (inactive); in the experiment on SK-MEL-5, 15.1 µM (inactive); with SW-620 it was 12.4 µM (inactive); with T47D, 14.6 µM (inactive); in the experiment on UACC-62, 11.3 µM (inactive); in the experiment on UO-31, 12.7 µM (inactive).

In the case of `COc1c(/C=C/C(C)(C)O)cc(C2CC(=O)c3c(O)cc(O)cc3O2)cc1CC=C(C)C` (configuration not stated), the GI50 in the experiment on A498 is 9.48 µM (inactive); in the experiment with ACHN, 7.6 µM (inactive); in the experiment on BT-549, 8.49 µM (inactive); with HOP-92, 10.3 µM (inactive); in the experiment with HT-29, 8.91 µM (inactive); in the experiment on K562, 10.7 µM (inactive). Further, the GI50 with OVCAR-5 was 9.14 µM (inactive); in the experiment with PC-3 it was 8.53 µM (inactive); in the experiment on RPMI-8226, 10.8 µM (inactive); with RXF 393 it was 7.91 µM (inactive); with SK-MEL-5, 8.47 µM (inactive); with SW-620, 17.3 µM (inactive). The GI50 is 11 µM (inactive) in the experiment with T47D, 6.79 µM (inactive) in the experiment with UACC-62 and 0.762 µM (active) in the experiment on UO-31.

Turning to `COC1/C=C/C(C)C(O)CC(O)/C=C/C(C)C(C(C)C(OC)C(C)CCC(=O)C(C)C(C/C=C/N(C)C=O)OC)OC(=O)/C=C/C=C(\C)CC(OC)CC2=CC(=O)O[C@@H](C(C)C(OC)C1)[C@H]2O` (some centres not stated), the GI50 in the experiment on A498 was < 0.005 µM (active); with ACHN, < 0.005 µM (active); in the experiment on BT-549 it was 0.0311 µM (active); with EKVX it was 0.0298 µM (active); in the experiment on HOP-62 it was 0.00515 µM (active); in the experiment with HOP-92, 0.00612 µM (active). In addition, the GI50 in the experiment with HT-29 was < 0.005 µM (active); in the experiment on IGROV-1, 0.0113 µM (active); in the experiment with OVCAR-3, < 0.005 µM (active); in the experiment with OVCAR-5, 0.0103 µM (active); in the experiment with PC-3, < 0.005 µM (active); with RPMI-8226 it was 0.00783 µM (active). The GI50 in the experiment with RXF 393 was < 0.005 µM (active); in the experiment on SK-MEL-5, < 0.005 µM (active); in the experiment with SW-620 it was < 0.005 µM (active); in the experiment on T47D, 0.0219 µM (active); in the experiment on UACC-62, 0.00665 µM (active); in the experiment with UO-31, 0.00769 µM (active).

On to `Nc1cc2c(nnn2C2OC(COCc3ccccc3)C(OCc3ccccc3)C2OCc2ccccc2)c(=O)[nH]1` (configuration not stated), for which the GI50 in the experiment with A498 is 48.8 µM (inactive); in the experiment with ACHN, 32.8 µM (inactive); with BT-549 it was 20 µM (inactive); in the experiment on EKVX it was 6.15 µM (inactive); in the experiment with HOP-62, 37.8 µM (inactive); in the experiment on HOP-92, 28.4 µM (inactive). Moreover, the GI50 in the experiment with HT-29 is 14.2 µM (inactive); in the experiment with IGROV-1, 33.1 µM (inactive); in the experiment with K562, 7.41 µM (inactive); with OVCAR-3 it was 18.7 µM (inactive); in the experiment on OVCAR-5, 27.6 µM (inactive); in the experiment on PC-3 it was 6.4 µM (inactive). The GI50 in the experiment with RXF 393 was 6.75 µM (inactive); in the experiment on SK-MEL-5, 7.26 µM (inactive); in the experiment on SW-620, 37 µM (inactive); in the experiment with T47D, 5.9 µM (inactive); in the experiment with UACC-62 it was 14.9 µM (inactive); with UO-31, 58.1 µM (inactive).

For `Cc1c(C(=O)N2CCN(c3ccc([N+](=O)[O-])cc3)CC2)[n+]([O-])c2cc(Cl)c(Cl)cc2[n+]1[O-]`, the GI50 in the experiment with A498 was 7.19 µM (inactive); in the experiment on ACHN it was 13.5 µM (inactive); with BT-549 it was 16.9 µM (inactive); in the experiment with EKVX it was 20.6 µM (inactive); in the experiment with HOP-62, 21.7 µM (inactive); in the experiment on HOP-92, 15.2 µM (inactive). Also, the GI50 is 25.2 µM (inactive) in the experiment on HT-29; 22.2 µM (inactive) in the experiment on IGROV-1; 26.5 µM (inactive) in the experiment on K562; 22.8 µM (inactive) in the experiment on OVCAR-3; 21.6 µM (inactive) with OVCAR-5; 19.1 µM (inactive) in the experiment on PC-3. For the same compound, the GI50 was 15.6 µM (inactive) with RPMI-8226; 13.6 µM (inactive) in the experiment on RXF 393; 10.9 µM (inactive) in the experiment on SK-MEL-5; 21.6 µM (inactive) with SW-620; 17.1 µM (inactive) in the experiment with T47D; 15.8 µM (inactive) in the experiment with UACC-62.

Regarding `CC[C@@]1(O)C(=O)OCc2c1cc1n(c2=O)Cc2c-1nc1ccccc1c2/C=N/NC(=O)c1ccc(N)cc1`, the GI50 with A498 is 0.33 µM (active); in the experiment on ACHN, 0.0244 µM (active); with BT-549, 0.391 µM (active); in the experiment with HOP-62, 0.0333 µM (active); with HOP-92, 0.0447 µM (active); in the experiment with HT-29, 4.68 µM (inactive). The GI50 with IGROV-1 was 0.279 µM (active); in the experiment on K562, 0.075 µM (active); in the experiment with OVCAR-3 it was 0.714 µM (active); in the experiment on OVCAR-5, 5.22 µM (inactive); in the experiment on PC-3, 0.177 µM (active); in the experiment with RPMI-8226, 1.52 µM (inactive). Also, the GI50 in the experiment with RXF 393 was < 0.0322 µM (active); in the experiment with SK-MEL-5, 0.136 µM (active); in the experiment with SW-620 it was 0.0796 µM (active); with T47D, < 0.01 µM (active); in the experiment with UACC-62 it was 0.0208 µM (active); with UO-31, 0.258 µM (active).

On to `C[C@H]1S[C@H](c2c(Cl)cccc2Cl)N2Cc3ccccc3N=C12`, for which the GI50 in the experiment on A498 is 24.5 µM (inactive); with ACHN, 12.4 µM (inactive); in the experiment with BT-549, 28.2 µM (inactive); with EKVX it was 10.2 µM (inactive); in the experiment with HOP-62, 14 µM (inactive); in the experiment with HOP-92, 17.9 µM (inactive). Further, the GI50 is 12.1 µM (inactive) with IGROV-1; 25.7 µM (inactive) in the experiment with K562; 11.4 µM (inactive) with OVCAR-3; 12 µM (inactive) in the experiment on OVCAR-5; 14.5 µM (inactive) with PC-3; 16 µM (inactive) with RPMI-8226. The GI50 with RXF 393 is 14.1 µM (inactive); in the experiment on SK-MEL-5 it was 10.2 µM (inactive); in the experiment on SW-620, 25.1 µM (inactive); in the experiment on T47D it was 12.4 µM (inactive); in the experiment on UACC-62, 9.82 µM (inactive); in the experiment with UO-31, 12.4 µM (inactive).

As for `COC(=O)C1=C(C)NC(C)=C(C(=O)OC)C1c1nc2sccn2c1[N+](=O)[O-]`, the GI50 in the experiment with A498 was > 100 µM (inactive); in the experiment with ACHN it was > 100 µM (inactive); with BT-549, > 100 µM (inactive); in the experiment on EKVX, 96.4 µM (inactive); in the experiment on HOP-62, > 100 µM (inactive); with HOP-92, > 100 µM (inactive). In addition, the GI50 with K562, in the experiment on OVCAR-3, in the experiment on OVCAR-5, in the experiment on PC-3, with RPMI-8226 and in the experiment with RXF 393 was > 100 µM (inactive) throughout. Moreover, the GI50 in the experiment with SK-MEL-5, with SW-620, in the experiment with T47D, with UACC-62 and with UO-31 was > 100 µM (inactive) each time.

In the case of `Cc1cc(=O)oc2cc(SC(=O)N(C)C)ccc12`, the GI50 is > 100 µM (inactive) in the experiment with A498; > 100 µM (inactive) with ACHN; > 100 µM (inactive) in the experiment on BT-549; 61 µM (inactive) with EKVX; > 100 µM (inactive) with HOP-62; > 100 µM (inactive) in the experiment on HOP-92. The GI50 with HT-29 was > 100 µM (inactive); in the experiment with IGROV-1 it was > 100 µM (inactive); in the experiment with OVCAR-3 it was > 100 µM (inactive); with OVCAR-5 it was 77.8 µM (inactive); in the experiment on PC-3, > 100 µM (inactive); in the experiment with RPMI-8226 it was > 100 µM (inactive). Besides, the GI50 was > 100 µM (inactive) in the experiment with RXF 393; > 100 µM (inactive) in the experiment on SK-MEL-5; > 100 µM (inactive) with SW-620; > 100 µM (inactive) in the experiment on T47D; 57.1 µM (inactive) with UACC-62; > 100 µM (inactive) with UO-31.
